According to the supplement of paper PMC10307832:

Legend:
Test in all cases: relative viability (nuclei count vs DMSO), 5 days (fraction); higher = more cells survive
[1] = compound: C[C@]1(O)C[C@@H](c2nc(-c3ccc4ccc(-c5ccccc5)nc4c3)c3c(N)nccn32)C1 [Linsitinib] + CC(=O)Nc1cccc(-n2c(=O)n(C3CC3)c(=O)c3c(Nc4ccc(I)cc4F)n(C)c(=O)c(C)c32)c1 [Trametinib] (partner 0.02 µM)
How it was run: (§1)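 Lung cancer cell lines in 1536-well plates were dosed by pin tool the day after seeding, either with one drug alone or with a fixed anchor-drug dose plus five library-drug doses (not always all listed) in √10 steps. After 5 days, cells were fixed and their nuclei stained in one step (final 0.05% Triton X-100, 1% formaldehyde, 1 ug/ml Hoechst), then counted on 4× images. Relative viability is the nuclei count in treated wells divided by that in vehicle wells. Values are medians of duplicate plates.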

[2] = compound: C[C@]1(O)C[C@@H](c2nc(-c3ccc4ccc(-c5ccccc5)nc4c3)c3c(N)nccn32)C1 [Linsitinib] + Cc1nc(NC(=O)N2CCC[C@H]2C(N)=O)sc1-c1ccnc(C(C)(C)C(F)(F)F)c1 [Alpelisib] (partner 2 µM)
How it was run: as §1

[3] = compound: C[C@]1(O)C[C@@H](c2nc(-c3ccc4ccc(-c5ccccc5)nc4c3)c3c(N)nccn32)C1 [Linsitinib] + Cc1nc(Nc2ncc(C(=O)Nc3c(C)cccc3Cl)s2)cc(N2CCN(CCO)CC2)n1 [Dasatinib] (partner 0.075 µM)
How it was run: as §1

[4] = compound: Cc1ccc(C(=O)N(CCCN)[C@@H](c2nc3cc(Cl)ccc3c(=O)n2Cc2ccccc2)C(C)C)cc1 [Ispinesib] + O=C(CCCCCCC(=O)Nc1ccccc1)NO [Vorinostat] (partner 1 µM)
How it was run: as §1

Cell Line: BEN
- relative viability ([1]; first compound 0.01 µM): 1.12
- relative viability ([1]; first compound 0.03162 µM): 1.02
- relative viability ([1]; first compound 0.1 µM): 1.03
- relative viability ([1]; first compound 0.3162 µM): 0.869
- relative viability ([1]; first compound 1 µM): 1.11
- relative viability ([2]; first compound 0.01 µM): 1.09
- relative viability ([2]; first compound 0.03162 µM): 1.02
- relative viability ([2]; first compound 0.1 µM): 0.935
- relative viability ([2]; first compound 0.3162 µM): 0.662
- relative viability ([2]; first compound 1 µM): 1.04
- relative viability ([3]; first compound 0.01 µM): 0.419
- relative viability ([3]; first compound 0.03162 µM): 0.316
- relative viability ([3]; first compound 0.1 µM): 0.318
- relative viability ([3]; first compound 1 µM): 0.352
- relative viability ([4]; first compound 0.001 µM): 0.538
- relative viability ([4]; first compound 0.003162 µM): 0.676
- relative viability ([4]; first compound 0.01 µM): 0.642
- relative viability ([4]; first compound 0.03162 µM): 0.478
- relative viability ([4]; first compound 0.1 µM): 0.374

Cell Line: NCI-H2347
- relative viability ([1]; first compound 0.01 µM): 0.277
- relative viability ([1]; first compound 0.03162 µM): 0.274
- relative viability ([1]; first compound 0.1 µM): 0.303
- relative viability ([1]; first compound 0.3162 µM): 0.287
- relative viability ([1]; first compound 1 µM): 0.418
- relative viability ([2]; first compound 0.01 µM): 1.01
- relative viability ([2]; first compound 0.03162 µM): 1.21
- relative viability ([2]; first compound 0.1 µM): 1.01
- relative viability ([2]; first compound 0.3162 µM): 0.595
- relative viability ([2]; first compound 1 µM): 0.902
- relative viability ([3]; first compound 0.01 µM): 0.3
- relative viability ([3]; first compound 0.03162 µM): 0.339
- relative viability ([3]; first compound 0.1 µM): 0.317
- relative viability ([3]; first compound 1 µM): 0.3
- relative viability ([4]; first compound 0.001 µM): 0.562
- relative viability ([4]; first compound 0.003162 µM): 0.617
- relative viability ([4]; first compound 0.01 µM): 0.738
- relative viability ([4]; first compound 0.03162 µM): 0.625
- relative viability ([4]; first compound 0.1 µM): 0.471

Cell Line: LCLC-103H
- relative viability ([1]; first compound 0.01 µM): 0.658
- relative viability ([1]; first compound 0.03162 µM): 0.56
- relative viability ([1]; first compound 0.1 µM): 0.688
- relative viability ([1]; first compound 0.3162 µM): 0.632
- relative viability ([1]; first compound 1 µM): 0.647
- relative viability ([2]; first compound 0.01 µM): 0.896
- relative viability ([2]; first compound 0.03162 µM): 0.943
- relative viability ([2]; first compound 0.1 µM): 0.975
- relative viability ([2]; first compound 0.3162 µM): 1.09
- relative viability ([2]; first compound 1 µM): 0.942
- relative viability ([3]; first compound 0.01 µM): 0.444
- relative viability ([3]; first compound 0.03162 µM): 0.517
- relative viability ([3]; first compound 0.1 µM): 0.474
- relative viability ([3]; first compound 0.3162 µM): 0.428
- relative viability ([3]; first compound 1 µM): 0.368
- relative viability ([4]; first compound 0.001 µM): 0.827
- relative viability ([4]; first compound 0.003162 µM): 0.86
- relative viability ([4]; first compound 0.01 µM): 0.845
- relative viability ([4]; first compound 0.03162 µM): 0.515
- relative viability ([4]; first compound 0.1 µM): 0.352

Cell Line: NCI-H650
- relative viability ([1]; first compound 0.01 µM): 1.04
- relative viability ([1]; first compound 0.03162 µM): 1.06
- relative viability ([1]; first compound 0.1 µM): 0.902
- relative viability ([1]; first compound 1 µM): 0.87
- relative viability ([2]; first compound 0.01 µM): 1.34
- relative viability ([2]; first compound 0.03162 µM): 1.23
- relative viability ([2]; first compound 0.1 µM): 1.02
- relative viability ([2]; first compound 1 µM): 1.07
- relative viability ([3]; first compound 0.01 µM): 0.45
- relative viability ([3]; first compound 0.03162 µM): 0.432
- relative viability ([3]; first compound 0.1 µM): 0.47
- relative viability ([3]; first compound 0.3162 µM): 0.374
- relative viability ([3]; first compound 1 µM): 0.325
- relative viability ([4]; first compound 0.001 µM): 0.508
- relative viability ([4]; first compound 0.003162 µM): 0.459
- relative viability ([4]; first compound 0.01 µM): 0.475
- relative viability ([4]; first compound 0.03162 µM): 0.365
- relative viability ([4]; first compound 0.1 µM): 0.199

Cell Line: NCI-H1975
- relative viability ([1]; first compound 0.01 µM): 0.396
- relative viability ([1]; first compound 0.03162 µM): 0.336
- relative viability ([1]; first compound 0.1 µM): 0.331
- relative viability ([1]; first compound 0.3162 µM): 0.308
- relative viability ([1]; first compound 1 µM): 0.272
- relative viability ([2]; first compound 0.01 µM): 0.608
- relative viability ([2]; first compound 0.03162 µM): 0.62
- relative viability ([2]; first compound 0.1 µM): 0.647
- relative viability ([2]; first compound 0.3162 µM): 0.543
- relative viability ([2]; first compound 1 µM): 0.453
- relative viability ([3]; first compound 0.01 µM): 0.37
- relative viability ([3]; first compound 0.03162 µM): 0.349
- relative viability ([3]; first compound 0.1 µM): 0.331
- relative viability ([3]; first compound 0.3162 µM): 0.241
- relative viability ([3]; first compound 1 µM): 0.235
- relative viability ([4]; first compound 0.001 µM): 0.738
- relative viability ([4]; first compound 0.003162 µM): 0.766
- relative viability ([4]; first compound 0.01 µM): 0.798
- relative viability ([4]; first compound 0.03162 µM): 0.586
- relative viability ([4]; first compound 0.1 µM): 0.279

Cell Line: NCI-H2126
- relative viability ([1]; first compound 0.01 µM): 0.568
- relative viability ([1]; first compound 0.03162 µM): 0.552
- relative viability ([1]; first compound 0.1 µM): 0.533
- relative viability ([1]; first compound 0.3162 µM): 0.509
- relative viability ([1]; first compound 1 µM): 0.473
- relative viability ([2]; first compound 0.01 µM): 0.726
- relative viability ([2]; first compound 0.03162 µM): 0.801
- relative viability ([2]; first compound 0.1 µM): 0.743
- relative viability ([2]; first compound 0.3162 µM): 0.682
- relative viability ([2]; first compound 1 µM): 0.717
- relative viability ([3]; first compound 0.01 µM): 0.596
- relative viability ([3]; first compound 0.03162 µM): 0.649
- relative viability ([3]; first compound 0.1 µM): 0.527
- relative viability ([3]; first compound 0.3162 µM): 0.273
- relative viability ([3]; first compound 1 µM): 0.27
- relative viability ([4]; first compound 0.001 µM): 0.754
- relative viability ([4]; first compound 0.003162 µM): 0.867
- relative viability ([4]; first compound 0.01 µM): 0.932
- relative viability ([4]; first compound 0.03162 µM): 0.789
- relative viability ([4]; first compound 0.1 µM): 0.289

Cell Line: NCI-H2087
- relative viability ([1]; first compound 0.01 µM): 0.197
- relative viability ([1]; first compound 0.03162 µM): 0.204
- relative viability ([1]; first compound 0.1 µM): 0.183
- relative viability ([1]; first compound 0.3162 µM): 0.15
- relative viability ([1]; first compound 1 µM): 0.191
- relative viability ([2]; first compound 0.01 µM): 1.06
- relative viability ([2]; first compound 0.03162 µM): 1.2
- relative viability ([2]; first compound 0.1 µM): 1.02
- relative viability ([2]; first compound 0.3162 µM): 0.853
- relative viability ([2]; first compound 1 µM): 0.815
- relative viability ([3]; first compound 0.01 µM): 0.756
- relative viability ([3]; first compound 0.03162 µM): 0.917
- relative viability ([3]; first compound 0.1 µM): 0.819
- relative viability ([3]; first compound 0.3162 µM): 0.549
- relative viability ([3]; first compound 1 µM): 0.624
- relative viability ([4]; first compound 0.001 µM): 0.963
- relative viability ([4]; first compound 0.003162 µM): 0.45
- relative viability ([4]; first compound 0.01 µM): 0.937
- relative viability ([4]; first compound 0.03162 µM): 0.995
- relative viability ([4]; first compound 0.1 µM): 0.141
